Source: PubChem BioAssay AID248 (DTP/NCI, 2004)
“And” between values parts separate entries of the source, which are not always exact repeats. Equal entries are not always repeated. Toxic doses and inconclusive results are not listed. No stated cut-off is given here; in the data, active means T/C of 150% or more; inactive means T/C below 125%.

Test system: L1210 leukemia ip in BDF1 mice, survival T/C
Test: NCI In Vivo Anticancer Drug Screen. Data for tumor model L1210 Leukemia (intraperitoneal) in B6D2F1 (BDF1) mice
Conditions: endpoint: mean survival time, higher = longer survival
How it was run: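 Transplantable tumor model; survival measured in treated vs vehicle control mice. Value = treated/control.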

[1] = dose: 100.0 mg/kg/injection, schedule: Q04DX002 (ip), vehicle: Klucel (hydroxypropylcellulose) (HPC)
[2] = dose: 200.0 mg/kg/injection, schedule: Q04DX002 (ip), vehicle: Klucel (hydroxypropylcellulose) (HPC)
[3] = dose: 400.0 mg/kg/injection, schedule: Q04DX002 (ip), vehicle: Klucel (hydroxypropylcellulose) (HPC)
[4] = dose: 50.0 mg/kg/injection, schedule: Q01DX001 (ip), vehicle: saline
[5] = dose: 100.0 mg/kg/injection, schedule: Q01DX001 (ip), vehicle: saline
[6] = dose: 200.0 mg/kg/injection, schedule: Q01DX001 (ip), vehicle: saline
[7] = dose: 400.0 mg/kg/injection, schedule: Q01DX001 (ip), vehicle: saline

Measured: T/C

CN(C)CCCNC(CC#N)CCC#N (configuration not stated)
inactive: dose: 50.0 mg/kg/injection, schedule: Q01DX009 (ip), vehicle: saline 91 % of control | dose: 100.0 mg/kg/injection, schedule: Q01DX009 (ip), vehicle: saline 92 % of control | dose: 200.0 mg/kg/injection, schedule: Q01DX009 (ip), vehicle: saline 92 % of control

CCCCCn1cnc2c(=S)nc[nH]c21
inactive: dose: 50.0 mg/kg/injection, schedule: Q01DX001 (ip), vehicle: carboxymethylcellulose (CMC) 92 % of control | dose: 100.0 mg/kg/injection, schedule: Q01DX001 (ip), vehicle: carboxymethylcellulose (CMC) 92 % of control | dose: 100.0 mg/kg/injection, schedule: Q01DX009 (ip), vehicle: acetone 93 % of control | dose: 100.0 mg/kg/injection, schedule: Q04DX003 (ip), vehicle: saline 92 % of control | dose: 200.0 mg/kg/injection, schedule: Q01DX001 (ip), vehicle: carboxymethylcellulose (CMC) 97 % of control | dose: 200.0 mg/kg/injection, schedule: Q01DX009 (ip), vehicle: acetone 95 % of control | dose: 200.0 mg/kg/injection, schedule: Q04DX003 (ip), vehicle: saline 100 % of control | dose: 400.0 mg/kg/injection, schedule: Q01DX001 (ip), vehicle: carboxymethylcellulose (CMC) 90 % of control | dose: 400.0 mg/kg/injection, schedule: Q01DX009 (ip), vehicle: acetone 93 % of control | dose: 400.0 mg/kg/injection, schedule: Q04DX003 (ip), vehicle: saline 103 % of control

O=C(O)c1cccc2nc3ccccc3nc12
inactive: [1] 100 % of control | [2] 102 % of control | [3] 96 % of control

Cc1[nH]ccc2c(C)c3nc4c5ccccc5ccc4c3cc12
inactive: dose: 60.0 mg/kg/injection, schedule: Q01DX Z (ip), vehicle: carboxymethylcellulose (CMC) 98 % of control | dose: 120.0 mg/kg/injection, schedule: Q01DX Z (ip), vehicle: carboxymethylcellulose (CMC) 98 % of control | dose: 240.0 mg/kg/injection, schedule: Q01DX Z (ip), vehicle: carboxymethylcellulose (CMC) 90 % of control

CCOc1cccc(Cc2c[nH]c(=S)[nH]c2=O)c1
inactive: dose: 100.0 mg/kg/injection, schedule: Q01DX001 (ip), vehicle: Klucel (hydroxypropylcellulose) (HPC) 100 % of control | dose: 200.0 mg/kg/injection, schedule: Q01DX001 (ip), vehicle: Klucel (hydroxypropylcellulose) (HPC) 105 % of control | dose: 400.0 mg/kg/injection, schedule: Q01DX001 (ip), vehicle: Klucel (hydroxypropylcellulose) (HPC) 94 % of control

CN(C)CCNCc1ccccc1
inactive: dose: 44.4 mg/kg/injection, schedule: Q01DX001 (ip), vehicle: saline 95 % of control and 98 % of control | dose: 66.7 mg/kg/injection, schedule: Q01DX001 (ip), vehicle: saline 96 % of control and 102 % of control | dose: 75.0 mg/kg/injection, schedule: Q01DX001 (ip), vehicle: saline 98 % of control | dose: 150.0 mg/kg/injection, schedule: Q01DX001 (ip), vehicle: saline 91 % of control and 94 % of control | dose: 300.0 mg/kg/injection, schedule: Q01DX001 (ip), vehicle: saline 95 % of control

CC1(C)CC2CCC1(Cl)CC2Cl (configuration not stated)
inactive: dose: 50.0 mg/kg/injection, schedule: Q01DX009 (ip), vehicle: saline + alcohol 100 % of control | dose: 100.0 mg/kg/injection, schedule: Q01DX009 (ip), vehicle: saline + alcohol 93 % of control

CC(C)(C)Sc1nc2ccccc2s1
inactive: dose: 25.0 mg/kg/injection, schedule: Q04DX002 (ip), vehicle: saline with Tween-80 93 % of control | dose: 50.0 mg/kg/injection, schedule: Q04DX002 (ip), vehicle: saline with Tween-80 93 % of control | dose: 100.0 mg/kg/injection, schedule: Q04DX002 (ip), vehicle: saline with Tween-80 96 % of control | dose: 200.0 mg/kg/injection, schedule: Q04DX002 (ip), vehicle: saline with Tween-80 105 % of control and 119 % of control | dose: 400.0 mg/kg/injection, schedule: Q04DX002 (ip), vehicle: saline with Tween-80 107 % of control

O=C(C=C(C(F)(F)F)C(F)(F)F)c1cccc(Cl)c1
inactive: dose: 6.25 mg/kg/injection, schedule: Q01DX009 (ip), vehicle: saline 100 % of control | dose: 6.25 mg/kg/injection, schedule: Q04DX003 (ip), vehicle: saline with Tween-80 96 % of control | dose: 12.5 mg/kg/injection, schedule: Q01DX009 (ip), vehicle: saline 100 % of control | dose: 12.5 mg/kg/injection, schedule: Q04DX003 (ip), vehicle: saline with Tween-80 107 % of control | dose: 25.0 mg/kg/injection, schedule: Q01DX009 (ip), vehicle: saline 97 % of control | dose: 25.0 mg/kg/injection, schedule: Q04DX003 (ip), vehicle: saline with Tween-80 100 % of control | dose: 50.0 mg/kg/injection, schedule: Q04DX003 (ip), vehicle: saline with Tween-80 100 % of control

CCCSc1ccccc1N1CCNCC1
inactive: [4] 103 % of control | [5] 101 % of control | [6] 101 % of control | [7] 103 % of control

Cc1c(Br)c(=O)[nH]c2c(C)cccc12
inactive: [5] 98 % of control | [6] 98 % of control | [7] 96 % of control

Cc1ccc(C(C)(C)C)c(OCC2=NCCN2)c1
inactive: dose: 10.0 mg/kg/injection, schedule: Q04DX003 (ip), vehicle: Klucel (hydroxypropylcellulose) (HPC) 96 % of control | dose: 12.5 mg/kg/injection, schedule: Q01DX009 (ip), vehicle: Klucel (hydroxypropylcellulose) (HPC) 86 % of control | dose: 20.0 mg/kg/injection, schedule: Q04DX003 (ip), vehicle: Klucel (hydroxypropylcellulose) (HPC) 90 % of control | dose: 25.0 mg/kg/injection, schedule: Q01DX009 (ip), vehicle: Klucel (hydroxypropylcellulose) (HPC) 96 % of control | dose: 40.0 mg/kg/injection, schedule: Q04DX003 (ip), vehicle: Klucel (hydroxypropylcellulose) (HPC) 96 % of control | dose: 50.0 mg/kg/injection, schedule: Q01DX009 (ip), vehicle: Klucel (hydroxypropylcellulose) (HPC) 104 % of control

CCCCCCCCCCCCCCCCCCNC(=O)NNC(=O)CCCC(=O)NNC(=O)NCCCCCCCCCCCCCCCCCC
inactive: [4] 91 % of control | [5] 97 % of control | [6] 100 % of control | [7] 97 % of control

Cc1ccccc1NC(=O)Oc1ccccc1-c1ccccc1
inactive: [1] 103 % of control | [2] 118 % of control | [3] 118 % of control

COc1ccc2cc(Br)ccc2c1
inactive: dose: 100.0 mg/kg/injection, schedule: Q01DX009 (ip), vehicle: saline with Tween-80 107 % of control | dose: 200.0 mg/kg/injection, schedule: Q01DX009 (ip), vehicle: saline with Tween-80 102 % of control | dose: 400.0 mg/kg/injection, schedule: Q01DX009 (ip), vehicle: saline with Tween-80 102 % of control

CC(/C=C/C=C/c1ccccc1)=N\O
inactive: dose: 100.0 mg/kg/injection, schedule: Q01DX009 (ip), vehicle: Klucel (hydroxypropylcellulose) (HPC) 98 % of control | dose: 200.0 mg/kg/injection, schedule: Q01DX009 (ip), vehicle: Klucel (hydroxypropylcellulose) (HPC) 90 % of control | dose: 400.0 mg/kg/injection, schedule: Q01DX009 (ip), vehicle: Klucel (hydroxypropylcellulose) (HPC) 96 % of control
